# In patent publication US11066371B2, “Pyridine compound, making, and use thereof” (UNITED ARAB EMIRATES UNIVERSITY, priority 2015, dated 2021):
compound,measurement,value
Cc1c(C#N)c([O-])nc(-c2ccccc2)c1/N=N/c1ccc([N+](=O)[O-])cc1.[K+],melting point,> 300 °C
